Reference: publication PMC11656837, “pH-Responsive Peptide Nanoparticles Deliver Macromolecules to Cells via Endosomal Membrane Nanoporation” (ACS Nano, 2024)

What was measured:
[1] = Particle size by quasielastic / dynamic light scattering; type: physicochemical; conditions: QLS/DLS
Protocol: To test this hypothesis, we next studied the C16-D-pHD108 particle size in solution using quasielastic light scattering (QLS). Samples of C16-D-pHD108 were dissolved in PBS with 138 mM NaCl, PBS with 69 mM NaCl, or PO4 buffer with no added salt. Most measurements were made at 25 μM peptides, but we tested concentrations between 25 and 200 μM peptides. Buffer without peptides gave a very low scattering intensity and no coherent particle peaks. […] Salt concentrations of 0, 69, and 138 mM had only small effects on the nanoparticle size. The median particle size for all samples was ∼120 nm. Particle size distributions for 25 μM C16-D-pHD108 are shown in Figure 8C at several salt concentrations for independently prepared samples. In Figure 8D, the light scattering intensity is shown to be a linear function of peptide concentration, with a Y-intercept at zero.
Dynamic light scattering was performed by using a Malvern Zetasizer Nano ZS90 DLS instrument. After HPLC purification, 10 nmol aliquots of C16-D-pHD108 were dried in silanized Eppendorf tubes. Peptide readily dissolved in PBS buffer and other aqueous buffers and remained stable in solution. For DLS samples, C16-D-pHD108 was dissolved in PBS with 138 mM NaCl, in PBS with 69 mM NaCl (50% of normal), or in a PO4 buffer with no added salt. Most measurements were made at 25 μM peptide, but we tested concentrations between 25 and 200 μM peptide. […]

[2] = test system: Chinese Hamster Ovary (CHO) cells; experiment: Cytosolic delivery of yellow fluorescent protein (confocal microscopy); type: cell-based; conditions: 25 μM peptide, 3.5 μM external YFP, 37 °C
Protocol: To validate the dextran delivery experiments, we also delivered two separate fluorescent proteins of ∼27 kDa molecular weight to the cytosol of two different cell lines using C16-D-pHD108 (see Figure 7). HeLa cells were incubated overnight with 10 μM green fluorescent protein (GFP), and Chinese Hamster Ovary (CHO) cells were incubated overnight with 3.5 μM yellow fluorescent protein (YFP), with and without 25 μM C16-D-pHD108. Just before imaging, external GFP and YFP were washed off and replaced with TAMRA-dextran (red) or fluorescent protein mTurquoise (blue), respectively, to mark the cell boundaries and extracellular spaces. […] These cells, especially those incubated with the higher 10 μM concentration of GFP, show endosomes with entrapped FP, just as we observed for dextran delivery. […] The apparent nuclear concentration of GFP in cells incubated with GFP but no peptide is indistinguishable from the background. With an external concentration of 3.5 μM, the YFP concentration delivered to the cell cytosol ranges from 1 to 3 μM, with a median of about 1.2 μM or 35% of the external concentration. The apparent cytosolic concentration of YFP in cells incubated with YFP but no peptide is indistinguishable from the background. We also performed YFP delivery experiments at a 4 h time point, Supplemental Figure S4. […]
For fluorescent protein or fluorescein-(Fab)2 fragment delivery, HeLa cells were incubated at 37 °C overnight in the presence of GFP with and without C16-D-pHD108 and CHO cells were incubated at 37 °C overnight with YFP in the presence and absence of C16-D-pHD108. […] Quantitation of delivered protein was performed by comparing measured intensities from microscopy images of standard protein solutions of known concentrations. […]
E. YFP intensities from the nuclei and cytosol of the cells in panels A,B and C,D. The dotted lines are the intensities of standard reference solution of media only and 3.5 µM YFP measured at the same time under identical conditions. […]

HeLa cells = experiment: Cell binding (peptide remaining in solution by HPLC); type: cell-based, human; conditions: HeLa 10^6 cells/ml in PBS pH 7, 20 μM peptide, 30 min, room temperature, supernatant by HPLC
Protocol: This was done by equilibrating a peptide solution with and without cells for 30 min, followed by measurement of the peptide remaining in solution using reverse phase HPLC. […] The cells were also stained with the DNA staining dye Hoechst 33342. […] Cell/membrane staining by C16-D-pHD108-TAMRA continues to grow rapidly as peptides accumulate on the membranes.
HeLa or RAW 264.7 cells were trypsinized, washed, and counted. Cells were concentrated in a minimal amount of PBS. To measure binding, 25 μL of cells at a known count were transferred to tubes and 25 μL of peptide in PBS was added for a final peptide concentration of 20 μM. Samples were incubated for 30 min with gentle agitation at room temperature. Cells were pelleted in a swinging bucket centrifuge, and 30 μL of supernatant was subjected to HPLC to measure the peptide remaining in the solution. A sample without cells but treated identically was used as a negative control for binding to normalize the recovered peptide.

## CCCCCCCCCCCCCCCC(=O)NCC(=O)N[C@@H](C(=O)NCC(=O)N[C@H](CCC(=O)O)C(=O)N[C@@H](C(=O)N[C@H](CC(C)C)C(=O)N[C@H](Cc1c[nH]cn1)C(=O)N[C@H](CCC(=O)O)C(=O)N[C@H](CC(C)C)C(=O)N[C@H](C)C(=O)N[C@H](CCC(=O)O)C(=O)NCC(=O)N[C@H](CC(C)C)C(=O)N1CCC[C@@H]1C(=O)N[C@H](CCC(=O)O)C(=O)N[C@H](CC(C)C)C(=O)N[C@H](CCC(N)=O)C(=O)N[C@H](CCC(=O)O)C(=O)N[C@H](Cc1c[nH]c2ccccc12)C(=O)N[C@@H](C(=O)N[C@H](Cc1c[nH]cn1)C(=O)N[C@H](C)C(=O)N[C@H](C)C(=O)N[C@H](CCC(N)=O)C(=O)N[C@H](CCC(N)=O)C(=O)N[C@H](CC(C)C)C(N)=O)[C@H](C)CC)C(C)C)[C@H](C)CC [C16-D-pHD108]
[1]; after sample preparation, pH 7
  stability of particle size distributions: stable up to a week
[1]; all samples, buffer pH 7
  median particle size / average diameter: around 120 nm
[2]; 4 h
  YFP delivered to cytosol, median as percent of the external solution: about 13%
[2]; overnight
  YFP concentration delivered to cell cytosol, median: about 1.2 μM
  YFP delivered to cytosol, median as percent of the external concentration: ~35%
HeLa cells
  binding to cells at pH 7: no measurable binding
